Experimental data taken from paper PMC4593031, “Azobenzene Modified Imidacloprid Derivatives as Photoswitchable Insecticides: Steering Molecular Activity in a Controllable Manner” (Scientific Reports, 2015).
Several values for one entry are separate records, joined by “and”; a condition that tells them apart may be missing. Identical values can stand only once. Like-named read-outs stand apart in the source and are kept apart here.

Experiments:
house fly brain nAChR = test: nAChR binding in vitro, competitive inhibition of [3H]NMI binding; conditions: 1 nM [3H]NMI, house fly head membranes, read-out: Musca domestica in vitro IC50, [3H]NMI
Protocol: Tritium labeled nitromethylene analogue of IMI ([^3H]NMI) is a unique reporter for monitoring nAChR binding not only in vitro but also in vivo due to its extremely high binding potency. Here, the in vitro interaction of AMIs with house fly brain nAChR was measured by competitive inhibition of [^3H]NMI binding (Table 2). Photoisomers of AMI-1, 2, 5, and 6 had very poor ability to displacing [^3H]NMI binding (IC50 > 2000 nM) leading to difficulty for difference judgement. […] A 4-fold difference was achieved on AMI-4 and 10 upon photoirradiation. Compounds AMI-9 or AMI-10 have some similarities with the bis-IMI derivatives disclosed by Kagabu et al.[49][50][51]. […] Among various spacers investigated, the heptamethylene or furan-2,5-dimethylene was the optimal bridge. The N-PhN=NPh-N lengths for trans and cis isomers of AMI-9 or AMI-10 are about 12.29 Ǻ and 6.82 Ǻ or 12.59 Ǻ and 8.14 Ǻ, respectively. While for the bis-IMI linked by heptamethylene, the distance is 9.96 Ǻ, close to that of cis-AMI-10. The shorter or longer distance of the linker may decrease the activity. Furthermore, the lack of heteroatom in the AB linker which is important for stabilizing the interaction with the receptor further attenuated the activity.
House fly heads were collected after the fly adults frozen with liquid nitrogen were broken into body parts. Then the heads were homogenized in 0.1 mM EDTA, 0.32 M sucrose and 100 mM sodium phosphate (pH 7.4). The homogenate was treated by filtering through four layers of 64-μm mesh nylon screen. After centrifuging at 500 g for 30 min, the supernatant was collected and again filtered through using the method above. After centrifuging at 25,000 g for 60 min at 4 °C, the pellet was resuspended in binding buffer (mixture of 50 mM sodium chloride and 10 mM sodium phosphate, pH 7.4). These brain membranes were used fresh or stored for up to several weeks at −80 °C. Then 1 nM [^3H]NMI, varying concentrations of neonicotinoids and 300–500 μg membrane protein in a final volume of 500 μL was incubated at 22 °C for 60 min. The reaction mixture was filtered through Whatman GF/B glass-fiber filters prewetted by binding buffer using a Brandel M-24R Harvester (Gaithersburg, MD) to quantitate the bound [^3H]NMI, followed by two rinses each with binding buffer (5 mL) and final liquid scintillation. Nonspecific binding was determined with unlabeled NMI (20 μM). Specific binding was about 80–90% of total binding. The percentage inhibition was determined from two (compounds AMI-1, AMI-2, AMI-5, AMI-6 and azobenzene whose activities were extremely low) or three separate experiments each with triplicate samples. Half maximal inhibitory concentration (IC50) were determined by nonlinear regression analysis for logarithm of inhibitor concentration versus probit percentage inhibition.

[1] = test system: house fly (Musca domestica); test: Insecticidal test for house fly by intrathoracic injection; format: in vivo; conditions: for Musca domestica in vivo LD50: intrathoracic injection, mortality at 24 h
Protocol: The ability of azobenzene to regulate insecticidal activities remains unexplored. To better understand the activity changes induced by light, the efficacy before and after irradiation was tested by leaf-dip method for cowpea aphid (Aphis craccivora) and intrathoracic injection against house fly (Musca domestica)[46][47]. Against cowpea aphid, all the isomers had low activity and no significant difference was observed between two photo isomers (Supplementary Table S1 online). We attribute this observation to the poor solubility at the testing concentrations.
Thus, injection of chemicals into house fly was employed to evaluate their intrinsic activity (Table 2). House fly is a most commonly used indicator for both in vitro and in vivo insecticidal activity. Replacement of chloropyridinyl in IMI with AB leads to a deleterious effect on in vivo activity to house fly as exemplified by analogues AMI-1, 2 and 5 with LD50 values of more than 10 μg/g irrespective of irradiation or not. […] No obvious difference was observed between the trans and cis form of AMI-9.
House fly adults were anesthetized with carbon dioxide for 10 min and then were treated with the AMIs dissolved in distilled water or 10% DMSO aqueous solution by intrathoracic injection (0.4 μL for each fly). Twenty flies were treated for each dosage with duplicate samples. The mortality rates were counted twenty-four hours after treatment. Each treatment had three repetitions and the data subjected to probit analysis.

[2] = UV/Vis absorption of photoisomers; format: physicochemical; conditions: for λmax n-π* (cis): cis isomer; for λmax π-π* (trans): trans isomer
Description: The photoswitchable behaviors of AMIs at room temperature were characterized by UV/Vis absorption, NMR spectroscopy and HPLC studies. […] Upon irradiation with ultraviolet (365 nm), a gradual intensity decrease at 327 nm and increase at 410–500 nm was detected corresponding to the π–π* and n–π* transition band, respectively (Fig. 3B). The reverse spectral changes were observed upon irradiation at 436 nm (data not shown). All the other compounds gave the similar spectral changes when illuminated with light. The proportions of E/Z isomer at the photostationary states before and after irradiation were determined by HPLC analysis (Table 1). Most of the compounds could produced more than 80% cis isomers upon irradiation. […] The photoisomerization of AMI-10 was further identified by ^1H NMR spectroscopy with the notable appearance of two double peaks at δ 7.25 and 6.85, respectively (Supplementary Fig. S1 online).
Varian Cary 100 UV-vis spectrophotometer was used for obtaining absorption (UV-Vis) spectra. The solutions of compounds were irradiated with a UV lamp (365 nm). The cis to trans photoisomeriation were performed with a light-emitting diode (blue light, 450 nm). The corresponding UV-Vis spectrums were collected in supplmentary files. The photostationary states were determined by high performance liquid chromatography (HPLC) measurements and the trans/cis ratios were calculated at the isosbestic points.

[3] = Photoswitching cycles / constant irradiation (fatigue resistance); format: physicochemical; conditions: multiple cycles of photoisomerization or constant irradiation at 365 nm for 1 h

| Molecule | IC50 (house fly brain nAChR; irradiated) [nM] | IC50 (house fly brain nAChR; nonirradiated) [nM] | Musca domestica in vivo LD50 ([1]; irradiated) | Musca domestica in vivo LD50 ([1]; nonirradiated) | λmax n-π* (cis) [2] [nm] | λmax π-π* (trans) [2] [nm] | photo bleaching or photo-oxidation [3] | poisoning sign in house fly ([1]; under the tested concentrations) | Musca domestica in vivo LD50 ([1]; irradiated, listed as 5) | Musca domestica in vivo LD50 ([1]; nonirradiated, listed as 5) |
| --- | --- | --- | --- | --- | --- | --- | --- | --- | --- | --- |
| 2-chloro-5-(((E)-2-(nitromethylene)-3-(2-((E)-phenyldiazenyl)benzyl)imidazolidin-1-yl)methyl)pyridine [AMI-6] | > 2000 | > 2000 | >10 µg/g | >10 µg/g | 433 | 322 |  |  |  |  |
| O=[N+]([O-])/N=C1\N(Cc2ccc(Cl)nc2)CCN1Cc1cccc(/N=N/c2ccccc2)c1 [AMI-3] | 1140 ± 106 | 250 ± 22 | 4.4 ± 0.7 µg/g | 3.9 ± 0.5 µg/g | 431 | 317 |  |  |  |  |
| O=[N+]([O-])/N=C1/N(Cc2ccc(/N=N/c3ccccc3)cc2)CCN1Cc1ccc(Cl)nc1 [AMI-4] | 1220 ± 98 | 818 ± 92 | 9.2 ± 1.6 µg/g | 6.5 ± 1.0 µg/g | 433 | 322 |  |  |  |  |
| O=[N+]([O-])/N=C1\N(Cc2ccc(Cl)nc2)CCN1Cc1cccc(/N=N/c2cccc(CN3CCN(Cc4ccc(Cl)nc4)/C3=N\[N+](=O)[O-])c2)c1 [AMI-9] | 1340 ± 154 | 1160 ± 141 | 3.0 ± 0.6 µg/g | 5.1 ± 0.8 µg/g | 429 | 319 |  |  |  |  |
| O=[N+]([O-])N=C1N(Cc2ccc(N=Nc3ccc(CN4CCN(Cc5ccc(Cl)nc5)C4=N[N+](=O)[O-])cc3)cc2)CCN1Cc1ccc(Cl)nc1 [AMI-10] | 112 ± 13 | 466 ± 55 | 0.5 µg/g and 0.5 ± 0.08 µg/g | 2.8 µg/g and 2.8 ± 0.4 µg/g | 434 | 325 | No photo bleaching or photo-oxidation could be observed |  |  |  |
| O=[N+]([O-])NC1=NCCN1Cc1ccc(Cl)nc1 [IMI, imidacloprid] | 28.8 ± 4 | 28.8 ± 4 | 0.05 ± 0.01 µg/g | 0.05 ± 0.01 µg/g |  |  |  |  |  |  |
| c1ccc(/N=N/c2ccccc2)cc1 [azobenzene] | > 2000 | > 2000 | >10 µg/g | >10 µg/g |  |  |  | no significant poisoning sign was detected |  |  |
| (E)-1-(3-(((E)-2-(nitromethylene)imidazolidin-1-yl)methyl)phenyl)-2-(3-(((Z)-2-(nitromethylene)imidazolidin-1-yl)methyl)phenyl)diazene [AMI-7] | 1730 ± 135 | 1860 ± 151 | 5.3 ± 1.0 µg/g | 7.9 ± 1.1 µg/g | 432 | 321 |  |  |  |  |
| (Z)-2-(nitromethylene)-1-(2-((E)-phenyldiazenyl)benzyl)imidazolidine [AMI-5] | > 2000 | > 2000 | >10 µg/g | >10 µg/g | 436 | 320 |  |  | more than 10 μg/g | more than 10 μg/g |
